Read-outs that look alike come from different tables or passages of the source.
Experiments:
[1] = IV/PO pharmacokinetic study in dogs; format: in vivo, male beagle dogs; parameters: AUC(0-t): concentration or dose not given beside the values; details: dog; for AUC(0-t): read-out: AUClast Mean
Protocol: Each rat or dog PK study began with formulation of the test compound. Appropriate masses of each test compound were added into a volume of vehicle (e.g. 5% sodium bicarbonate, 5% dextrose in H2O) such that the final concentration of each compound was appropriate to be dosed at 2 mL/kg. Although a homogenous suspension were acceptable for oral dosing, intravenous dosing solutions were sterile-filtered (0.2 μm) prior to dosing to ensure no particulates were administered.
In the dog study, male beagle dogs (3 per route) housed at Agilux Laboratories (Worcester, Mass.) and weighing between 7-12 kg received either a single oral gavage or a single intravenous (via indwelling catheter) dose of the dosing solution. The final dose was typically 0.1-2 mg/kg. Serial blood samples were harvested via direct venipuncture at 3 minutes, 15 minutes, 30 minutes, 1 hour, 2 hours, 4 hours, 6 hours, 8 hours, 12 hours, and 24 hours post-dose. All samples were collected manually into microtainer tubes containing EDTA as the anticoagulant and were processed to plasma by refrigerated centrifugation.
Plasma samples were extracted with 3 volumes of MeCN containing a suitable internal standard. Extracts were reconstituted into 3 volumes of water containing 1% formic acid, and analyzed via HPLC-coupled MS/MS. Plasma concentration-time data were analyzed using the Phoenix software (Pharsight Corp., St. Louis, Mo.) to calculate pharmacokinetic parameters.
Plasma clearance was determined from the intravenous arm of the study, and represents the rate at which plasma is cleared of drug. It is equal to the dose divided by the area under the plasma concentration-time curve. In addition to plasma clearance, it is also essential for an orally administered drug to reach efficacious systemic levels following oral delivery. Oral bioavailability is a measurement of plasma exposures following oral administration relative to exposures following intravenous administration.

[2] = Renal excretion of Compound 1 in monkey; format: in vivo, male cynomolgus monkeys; details: IV 1 mg/kg
Protocol: (§1) An important factor for insuring appropriate long term drug dosing and correct steady-state drug concentrations in patients is drug clearance. In general, decreased drug clearance results in higher drug concentrations and greater drug effects. In order to understand renal clearance of Compound 1, the percent of administered dose recovered in urine following a single IV dose was assessed in three animal species. Three separate studies in male Sprague Dawley rats, male beagle dogs and male cynomolgus monkeys, respectively, were conducted and the procedure and experimental results are described below.
Male cynomolgus monkeys (N=3), having body weights of 4.42-5.81 kg, received an IV dose of compound 1 at 1 mg/kg. Compound 1 was dissolved in PEG-200:ethanol:water (40:10:50) and filtered through a […] polyvinyl difluoride (PVDF) syringe filter prior to administration. The monkeys had access to food ad libitum before and after administration of Compound 1. Urine samples were collected on dry ice during the collection interval periods, the sample volumes were recorded, and the urine acidified with acetic acid to a final concentration of approximately 2% acetic acid. Aliquots were obtained and frozen (−70° C.) prior to bioanalysis.
Monkey urine concentrations of Compound 1 were determined by LC/MS/MS. Urine samples were thawed and diluted in plasma K2EDTA (1:4). […]

[3] = Renal excretion of Compound 1 in dog; format: in vivo, male beagle dogs; details: for Urinary Excretion (approximate % of administered dose excreted in urine) Mean: 0-24 hrs
Protocol: as §1
Male beagle dogs (N=6, two groups of 3), having body weights of 9.04-10.2 kg and 10.8-11.5 kg, received an IV dose of Compound 1 at 0.1 mg/kg (Group I) and 1.255 mg/kg (Group II) as part of a dosing cassette. Compound 1 was dissolved in PEG-200:ethanol:water (40:10:50) and filtered through a […] polyvinyl difluoride (PVDF) syringe filter prior to administration. The dogs had access to food ad libitum before and after administration of Compound 1. Urine samples were collected on cold packs into pre-weighed containers that were prefilled with 0.5 mL glacial acetic acid. The samples were weighed again and additional glacial acetic acid was added if needed to a final concentration of 2%. The samples were frozen and stored (−80° C.) prior to bioanalysis.
Dog urine concentrations of Compound 1 were determined by LC/MS/MS. Urine study samples (diluted in plasma K2EDTA(1:9)) were vortexed and 25 μL was placed in a 96-well plate. The samples were extracted with 100 μL in acetonitrile with internal standard Glyburide. The extract was centrifuged for 5 minutes at 3100 RPM and 75 μL of supernatant was transferred and mixed with 150 μL water. Samples (12 μL) were injected on a Waters Acquity UPLC BEH C18 (50×2.1 mm, 1.7 μm) column with a flow rate of 0.9 mL/min. Mobile phase A consisted of 95:5:0.1 (v:v:v) water:acetonitrile:formic acid and mobile phase B consisted of 50:50:0.1 (v:v:v) methanol:acetonitrile:formic acid. The gradient elution started with 35% to 90% B from 0.2 to 1.6 min, held at 95% from 1.7 to 2.2 min., followed by a step of 95% to 35% B from 2.20 to 2.30 min. Compound 1 assay range was 0.000100 to 1.00 μg/mL.
The mean amount of urine excreted over a collection period of 24 hrs and the approximate % of administered dose excreted in urine is reported in the table below.

## Cc1cnc(C(=O)N[C@H](Cc2ccc(-c3cc(Cl)ccc3F)cc2)C[C@@H](O)C(=O)O)o1 [Compound 1, (2R,4R)-5-(5′-Chloro-2′-fluorobiphenyl-4-yl)-2-hydroxy-4-[(5-methyloxazole-2-carbonyl)amino]pentanoic Acid]
[1]; IV
  CLlast Mean: 4.83 mL/min/kg
[1]; male, beagle, plasma, IV
  AUC(0-t): 510 ng·h/mL
[1]; male, beagle, plasma, PO vs IV AUClast
  bioavailability: > 100%
[1]; male, beagle, plasma, PO
  AUC(0-t): 530 ng·h/mL
[2]
  Amount of Compound 1 Excreted in Urine over Collection Period (0-24 hrs) Mean: 157 µg
[3]; IV 0.1 mg/kg
  Amount of Compound 1 Excreted in Urine over Collection Period (0-24 hrs) Mean: 15.8 µg
  Urinary Excretion (approximate % of administered dose excreted in urine) Mean: 0.92%
[3]; IV 1.26 mg/kg
  Amount of Compound 1 Excreted in Urine over Collection Period (0-24 hrs) Mean: 103 µg
  Urinary Excretion (approximate % of administered dose excreted in urine) Mean: 1.67%

— patent US11642332B2, “(2R,4R)-5-(5′-chloro-2′-fluorobiphenyl-4-yl)-2-hydroxy-4-[(5-methyloxazole-2-carbonyl)amino]pentanoic acid” (THERAVANCE BIOPHARMA R&D IP, LLC, priority 2015, dated 2023)
